The values below come from PMC9655717, “New Molecules of Diterpene Origin with Inhibitory Properties toward α-Glucosidase” (International Journal of Molecular Sciences, 2022).

Bounds are passed on as bounds.

The target of the first experiment is T1, yeast α-GLy (α-glucosidase, Sigma G0660) (Saccharomyces cerevisiae, UniProt P53341).
T1 construct: purchased Sigma G0660
T1 sequence (P53341 whole entry): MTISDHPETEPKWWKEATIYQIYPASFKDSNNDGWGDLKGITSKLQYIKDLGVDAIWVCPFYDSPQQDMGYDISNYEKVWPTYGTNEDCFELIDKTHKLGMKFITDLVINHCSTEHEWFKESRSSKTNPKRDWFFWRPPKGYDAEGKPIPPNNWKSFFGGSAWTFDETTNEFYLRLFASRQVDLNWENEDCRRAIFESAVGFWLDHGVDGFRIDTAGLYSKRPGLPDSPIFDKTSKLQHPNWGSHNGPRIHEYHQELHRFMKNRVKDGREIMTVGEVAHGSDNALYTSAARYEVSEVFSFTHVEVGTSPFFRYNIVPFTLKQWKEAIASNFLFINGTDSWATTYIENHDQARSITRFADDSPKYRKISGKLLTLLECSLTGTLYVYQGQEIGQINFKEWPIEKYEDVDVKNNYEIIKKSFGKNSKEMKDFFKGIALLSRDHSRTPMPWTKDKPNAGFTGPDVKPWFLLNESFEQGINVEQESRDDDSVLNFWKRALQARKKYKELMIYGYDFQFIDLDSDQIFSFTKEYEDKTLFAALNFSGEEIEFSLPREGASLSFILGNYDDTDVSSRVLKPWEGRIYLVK
Put plainly: biochemical. The settings on record: IC50 ± SE, α-glucosidase inhibition, yeast α-glucosidase, 37°C, pH 6.8. It counts as biochemical. On the procedure:
S1. Materials and Methods […]
glucosidase inhibition assay. α-Glucosidase enzyme inhibition assay was carried out in a 96-well microplate. The method’s principle based on the hydrolyzed reaction of 4-nitrophenyl-α-D-glucopiranoside with α-glucosidase enzyme into yellow 4- […]
p-Nitrophenyl α-D-Glucoside a- Gl ucosidas e α-D-Glucose + p- Nitrophenol α-Glucosidase inhibitory activity assay was performed following the modified method of Pistia Brueggeman and Hollingsworth with slight modification. Quinopimaric […]
concentrations of 256, 64, 16, 4 and 1 µg/mL. In a 96-well plate, a reaction mixture containing 20 μL of phosphate buffer (100 mM; pH 6.8), 20 μL of α-glucosidase (0.3 U/mL, Sigma G0660) (this concentration was determined by a series of α-glucosidase […]
linearity between the enzyme concentration and the absorbance of yellow color mixture after reaction which was approximately 5-fold higher than the back ground and at least […]
concentrations was pre-incubated for 10 min at 37°C. Then 20 μL of […] p-nitrophenyl α-D-glucopyranoside (Sigma N1377) was added to the mixture as a substrate. After further incubation at 37°C for 30 min, the reaction was stopped by adding 80 μL of 0.1 […]
solution were prepared using the phosphate buffer […]; pH 6.8. […]
as a positive control and water as negative control. The yellow color produced was quantitated by colorimetric analysis and reading the absorbance at 410 nm. Each experiment was performed in triplicates, along with appropriate blanks. The solvent DMSO was use as negative control to evaluate its effect on α-glucosidase activity. […]
or substrate in negative control. Back ground was determined by volume of buffer as […]
The % inhibition has been obtained using the formula:
% inhibition = {Absorbance (control) –Absorbance (sample)}/Absorbance (control) IC50 value is defined as the concentration of samples inhibiting 50% of α-glucosidase activity under the stated assay conditions. […]
The compound `CC(C)C1=C[C@@]23CC[C@@H]4[C@](C)(CCC[C@@]4(C)C(=O)O)[C@H]2C[C@@H]1[C@H]1C(=O)C=CC(=O)[C@H]13` [Compound 1, quinopimaric acid] showed an IC50 of 59.59 ± 0.18 µM.

For the compound `CC(C)C1=C[C@@]23CC[C@H]4[C@](C)(CO)CCC[C@]4(C)[C@H]2C[C@@H]1[C@@H]1[C@H]3[C@@H](O)CC[C@@H]1O` [Compound 2], the IC50 is more than 255 µM.

`COC(=O)[C@]1(C)CCC[C@]2(C)[C@H]3C[C@@H]4[C@H]5[C@@H]6CCC(=O)[C@H]5[C@@]3(CC[C@H]21)C[C@@]4(C(C)C)O6` [Compound 3, 1β,13α-epoxy methyldihydroquinopimarate] displayed an IC50 of more than 255 µM.

In the case of `COC(=O)[C@]1(C)CCC[C@]2(C)[C@H]3C[C@@H]4[C@H]5[C@@H]6CCC(=NO)[C@H]5[C@@]3(CC[C@H]21)C[C@@]4(C(C)C)O6` [Compound 4], the IC50 was more than 255 µM.

`COC(=O)[C@]1(C)CCC[C@]2(C)[C@H]3C[C@@H]4[C@H]5[C@@H]6CCC(=NOCCC#N)[C@H]5[C@@]3(CC[C@H]21)C[C@@]4(C(C)C)O6` [Compound 5]: the IC50 is more than 255 µM.

For `CC(C)C1=C[C@@]23CC[C@@H]4[C@](C)(CCC[C@@]4(C)C(=O)O)[C@H]2C[C@@H]1[C@H]1C(=O)CCC(=O)[C@H]13` [Compound 8, 2,3-dihydroquinopimaric acid], 35.6 ± 0.92 µM corresponded to half-maximal inhibition (IC50).

`C#CCNC(=O)[C@]1(C)CCC[C@]2(C)[C@H]3C[C@H]4C(C(C)C)=C[C@]3(CC[C@H]21)[C@@H]1C(=O)CCC(=O)[C@@H]14` [Compound 10] came in with an IC50 of more than 255 µM.

In the case of `CC(C)C1=C[C@@]23CC[C@@H]4[C@](C)(CCC[C@@]4(C)C(=O)N4CCCNCC4)[C@H]2C[C@@H]1[C@H]1C(=O)CCC(=O)[C@H]13` [Compound 11], the IC50 was more than 255 µM.

With `COC(=O)C(C)NC(=O)[C@]1(C)CCC[C@]2(C)[C@H]3C[C@H]4C(C(C)C)=C[C@]3(CC[C@H]21)[C@@H]1C(=O)CCC(=O)[C@@H]14` (stereo partly drawn) [Compound 12], the IC50 was more than 255 µM.

As to `COC(=O)C(CCSC)NC(=O)[C@]1(C)CCC[C@]2(C)[C@H]3C[C@H]4C(C(C)C)=C[C@]3(CC[C@H]21)[C@@H]1C(=O)CCC(=O)[C@@H]14` (stereo partly drawn) [Compound 13], the IC50 was more than 255 µM.

`COC(=O)[C@]1(C)CCC[C@]2(C)[C@H]3C[C@H]4C(C(C)C)=C[C@]3(CC[C@H]21)[C@@H]1C(=O)CC[C@H](O)[C@@H]14` [Compound 14] came in with an IC50 of more than 255 µM.

The compound `COC(=O)[C@]1(C)CCC[C@]2(C)[C@H]3C[C@H]4C(C(C)C)=C[C@]3(CC[C@H]21)[C@@H]1C(=O)CC[C@H](OC(C)=O)[C@@H]14` [Compound 15] returned an IC50 of more than 255 µM.

The compound `COC(=O)[C@]1(C)CCC[C@]2(C)[C@H]3C[C@H]4C(C(C)C)=C[C@]3(CC[C@H]21)[C@@H]1C(=O)CC[C@H](OCCC#N)[C@@H]14` [Compound 16] came in with an IC50 of more than 255 µM.

Turning to `COC(=O)[C@]1(C)CCC[C@]2(C)[C@H]3C[C@H]4C(C(C)C)=C[C@]3(CC[C@H]21)[C@@H]1C(=O)CC[C@H](OC(=O)CCC(=O)O)[C@@H]14` [Compound 17], the IC50 was more than 255 µM.

Consider `COC(=O)[C@]1(C)CCC[C@]2(C)[C@H]3C[C@H]4C(C(C)C)=C[C@]3(CC[C@H]21)[C@@H]1C(=O)CC[C@H](OC(=O)CCCC(=O)O)[C@@H]14` [Compound 18], for which the IC50 is more than 255 µM.

Take `COC(=O)[C@]1(C)CCC[C@]2(C)[C@H]3C[C@H]4C(C(C)C)=C[C@]3(CC[C@H]21)[C@@H]1C(=O)CC[C@H](OC(=O)c2cccnc2)[C@@H]14` [Compound 19]: the IC50 is more than 255 µM.

The compound `COC(=O)[C@]1(C)CCC[C@]2(C)[C@H]3C[C@H]4C(C(C)C)=C[C@]3(CC[C@H]21)[C@@H]1C(=O)CC[C@H](OC(=O)c2ccccc2C(=O)O)[C@@H]14` [Compound 20] registered an IC50 of more than 255 µM.

Compound `COC(=O)[C@]1(C)CCC[C@]2(C)[C@H]3C[C@H]4C(C(C)C)=C[C@]3(CC[C@H]21)[C@H]1[C@@H]4[C@@H](O)CC[C@@H]1O` [Compound 21] returned an IC50 of more than 255 µM.

Compound `COC(=O)[C@]1(C)CCC[C@]2(C)[C@H]3C[C@H]4C(C(C)C)=C[C@]3(CC[C@H]21)[C@H]1[C@@H]4[C@@H](OCCC#N)CC[C@@H]1OCCC#N` [Compound 22] came in with an IC50 of more than 255 µM.

In the case of `COC(=O)[C@]1(C)CCC[C@]2(C)[C@H]3C[C@H]4C(C(C)C)=C[C@]3(CC[C@H]21)[C@H]1[C@@H]4[C@@H](OCCC(N)=NO)CC[C@@H]1OCCC(N)=NO` [Compound 23], the IC50 was more than 255 µM.

In turn, `COC(=O)[C@]1(C)CCC[C@]2(C)[C@H]3C[C@H]4C(C(C)C)=C[C@]3(CC[C@H]21)[C@H]1[C@@H]4[C@@H](OC(=O)c2cccnc2)CC[C@@H]1OC(=O)c1cccnc1` [Compound 24] yielded an IC50 of more than 255 µM.

Regarding `COC(=O)[C@]1(C)CCC[C@]2(C)[C@H]3C[C@@H]4[C@H]5[C@@H]6CC(Br)C(=O)[C@H]5[C@@]3(CC[C@H]21)C[C@@]4(C(C)C)O6` (stereo partly drawn) [Compound 25], the IC50 is more than 255 µM.

For `COC(=O)[C@]1(C)CCC[C@]2(C)[C@H]3C[C@@H]4[C@H]5[C@@H]6Cc7cn[nH]c7[C@H]5[C@@]3(CC[C@H]21)C[C@@]4(C(C)C)O6` [Compound 31], the IC50 was more than 255 µM.

The compound `COC(=O)[C@]1(C)CCC[C@]2(C)[C@H]3C[C@@H]4[C@H]5[C@@H]6CC7NC(=S)NC7[C@H]5[C@@]3(CC[C@H]21)C[C@@]4(C(C)C)O6` (stereo partly drawn) [Compound 32] registered an IC50 of 9.66 ± 0.77 µM.

The experiment is the same for the next values; noted with them: ratio of α-GLy IC50 values versus acarbose.
As for `CC(C)C1=C[C@@]23CC[C@@H]4[C@](C)(CCC[C@@]4(C)C(=O)O)[C@H]2C[C@@H]1[C@H]1C(=O)C=CC(=O)[C@H]13` [Compound 1, quinopimaric acid], the “times more active (potent) than acarbose” value is on record as “three times higher”.

The experiment is the same for the next values; noted with them: yeast α-glucosidase, 37°C, pH 6.8; read-out: IC50 ± SE, α-glucosidase inhibition.
`COC(=O)[C@]1(C)CCC[C@]2(C)[C@H]3C[C@H]4C(C(C)C)=C[C@]3(CC[C@H]21)[C@@H]1C(=O)C(=Cc2ccc(OC)cc2)C[C@H](O)[C@@H]14` [Compound 6]: the IC50 amounted to 1.63 ± 0.006 µM.

As for `COC(=O)[C@]1(C)CCC[C@]2(C)[C@H]3C[C@H]4C(C(C)C)=C[C@]3(CC[C@H]21)[C@@H]1C(=O)C(=Cc2ccco2)C[C@H](O)[C@@H]14` [Compound 7], the IC50 came to 2.5 ± 0.011 µM.

Take `CC(C)C1=C[C@@]23CC[C@@H]4[C@](C)(CCC[C@@]4(C)C(=O)NCCCCNCCCN)[C@H]2C[C@@H]1[C@H]1C(=O)CCC(=O)[C@H]13` [Compound 9]: the IC50 came out at 35.2 ± 0.71 µM.

On to `COC(=O)[C@]1(C)CCC[C@]2(C)[C@H]3C[C@@H]4[C@H]5[C@@H]6CC(=Cc7ccccc7)C(=O)[C@H]5[C@@]3(CC[C@H]21)C[C@@]4(C(C)C)O6` [Compound 26], for which the IC50 was found to be 13.08 ± 0.01 µM.

For `COC(=O)[C@]1(C)CCC[C@]2(C)[C@H]3C[C@@H]4[C@H]5[C@@H]6CC(=Cc7ccc(OC)cc7)C(=O)[C@H]5[C@@]3(CC[C@H]21)C[C@@]4(C(C)C)O6` [Compound 27], the IC50 is more than 255 µM.

For the compound `COC(=O)[C@]1(C)CCC[C@]2(C)[C@H]3C[C@@H]4[C@H]5[C@@H]6CC(=Cc7ccc(OC)c(OC)c7)C(=O)[C@H]5[C@@]3(CC[C@H]21)C[C@@]4(C(C)C)O6` [Compound 28], the IC50 worked out at 12.7 ± 0.21 µM.

On to `COC(=O)[C@]1(C)CCC[C@]2(C)[C@H]3C[C@@H]4[C@H]5[C@@H]6CC(=Cc7ccco7)C(=O)[C@H]5[C@@]3(CC[C@H]21)C[C@@]4(C(C)C)O6` [Compound 29], for which the half-inhibitory concentration (IC50) was 1.63 ± 0.041 µM.

In the case of `COC(=O)[C@]1(C)CCC[C@]2(C)[C@H]3C[C@@H]4[C@H]5[C@@H]6CC(=Cc7cccnc7)C(=O)[C@H]5[C@@]3(CC[C@H]21)C[C@@]4(C(C)C)O6` [Compound 30], the IC50 came to 38.8 ± 0.33 µM.

For orientation: IC50 means the concentration needed to halve the response being measured.
